Data taken from PMC10882719 (Frontiers in Neuroscience, 2024).
Read-outs that look alike come from different tables or passages of the source.

Key:
Format in all cases: cell-based
[1] = biological target: T1, 168 GPCRs (Homo sapiens, UniProt P08908); settings: HTR1A
T1 construct: host or cells: PathHunter cell lines
T1 sequence (P08908 1-422): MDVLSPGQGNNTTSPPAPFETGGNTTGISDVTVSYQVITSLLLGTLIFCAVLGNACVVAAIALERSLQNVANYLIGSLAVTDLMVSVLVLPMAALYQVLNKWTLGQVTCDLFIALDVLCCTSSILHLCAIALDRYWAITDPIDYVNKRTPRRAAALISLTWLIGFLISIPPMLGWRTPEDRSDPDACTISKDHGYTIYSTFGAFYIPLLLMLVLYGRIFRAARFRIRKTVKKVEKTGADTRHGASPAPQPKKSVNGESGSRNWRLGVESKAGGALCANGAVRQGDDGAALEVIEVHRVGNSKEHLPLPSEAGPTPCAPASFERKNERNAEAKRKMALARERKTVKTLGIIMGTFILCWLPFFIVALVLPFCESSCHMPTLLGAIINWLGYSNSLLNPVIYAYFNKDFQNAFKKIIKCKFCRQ
Description: (§1) Studies were performed at Eurofins DiscoverX Corporation (Fremont, CA) using the GPCRmax assay according to the manufacturer’s protocols. […] Activity greater than 30% typically indicates agonist activity and inhibition greater than 50% indicates antagonist activity. This assay uses enzyme fragment complementation with […] as the functional reporter. When a GPCR is activated, […] is recruited and the reporter is detectable. GPCRmax offers a high-throughput screen of 168 GPCRs for agonist or antagonist activity. Briefly, PathHunter cell lines were propagated, seeded into 384-well microplates and incubated at 37°C. […] Microplates were read following signal generation with a PerkinElmer Envision™ instrument for chemiluminescent signal detection. Compound activity was analyzed using CBIS data analysis suite (ChemInnovation, CA) to determine raw values (RLU). For agonist mode assay, percentage activity was calculated using the following formula: % Activity =100% × (mean RLU of test sample - mean RLU of vehicle control) / (mean MAX control ligand - mean RLU of vehicle control). For antagonist mode assay, percentage inhibition was calculated using the following formula: % Inhibition =100% × (1 - (mean RLU of test sample - mean RLU of vehicle control) / (mean RLU of EC80 control - mean RLU of vehicle control)).

[2] = biological target: T2, 168 GPCRs (Homo sapiens, UniProt P22888); settings: LHCGR
T2 construct: host or cells: PathHunter cell lines
T2 sequence (P22888 27-699): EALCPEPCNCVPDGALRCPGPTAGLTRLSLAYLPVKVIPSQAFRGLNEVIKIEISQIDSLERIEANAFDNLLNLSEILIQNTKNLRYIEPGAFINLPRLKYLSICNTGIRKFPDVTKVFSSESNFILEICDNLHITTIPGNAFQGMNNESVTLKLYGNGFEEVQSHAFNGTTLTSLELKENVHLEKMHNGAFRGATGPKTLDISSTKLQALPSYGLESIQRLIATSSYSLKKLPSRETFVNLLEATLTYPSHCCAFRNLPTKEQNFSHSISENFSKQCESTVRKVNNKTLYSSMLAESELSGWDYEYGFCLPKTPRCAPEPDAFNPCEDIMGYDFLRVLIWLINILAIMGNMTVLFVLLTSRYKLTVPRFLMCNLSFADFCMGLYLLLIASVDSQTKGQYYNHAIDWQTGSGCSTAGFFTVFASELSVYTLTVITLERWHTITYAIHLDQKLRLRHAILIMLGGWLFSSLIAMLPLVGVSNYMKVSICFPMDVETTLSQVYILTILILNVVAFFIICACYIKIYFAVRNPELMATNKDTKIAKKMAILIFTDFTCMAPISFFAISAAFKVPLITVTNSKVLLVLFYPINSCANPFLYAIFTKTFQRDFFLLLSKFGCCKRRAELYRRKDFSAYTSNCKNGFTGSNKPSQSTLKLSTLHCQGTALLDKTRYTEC
Description: as §1

[3] = biological target: T3, 168 GPCRs (Homo sapiens, UniProt P30518)
T3 construct: host or cells: PathHunter cell lines
T3 sequence (P30518 whole entry): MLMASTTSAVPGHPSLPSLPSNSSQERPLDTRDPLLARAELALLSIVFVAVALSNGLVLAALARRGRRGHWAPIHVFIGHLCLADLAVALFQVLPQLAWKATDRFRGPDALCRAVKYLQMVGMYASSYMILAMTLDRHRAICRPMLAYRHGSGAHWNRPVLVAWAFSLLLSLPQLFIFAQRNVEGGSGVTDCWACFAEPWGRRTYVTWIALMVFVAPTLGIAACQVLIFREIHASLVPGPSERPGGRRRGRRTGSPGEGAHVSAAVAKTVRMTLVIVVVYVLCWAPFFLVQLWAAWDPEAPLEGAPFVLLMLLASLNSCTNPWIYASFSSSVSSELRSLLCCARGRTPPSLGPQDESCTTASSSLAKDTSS
Description: as §1

[4] = biological target: T4, 168 GPCRs (Homo sapiens, UniProt P30872); settings: SSTR1
T4 construct: host or cells: PathHunter cell lines
T4 sequence (P30872 whole entry): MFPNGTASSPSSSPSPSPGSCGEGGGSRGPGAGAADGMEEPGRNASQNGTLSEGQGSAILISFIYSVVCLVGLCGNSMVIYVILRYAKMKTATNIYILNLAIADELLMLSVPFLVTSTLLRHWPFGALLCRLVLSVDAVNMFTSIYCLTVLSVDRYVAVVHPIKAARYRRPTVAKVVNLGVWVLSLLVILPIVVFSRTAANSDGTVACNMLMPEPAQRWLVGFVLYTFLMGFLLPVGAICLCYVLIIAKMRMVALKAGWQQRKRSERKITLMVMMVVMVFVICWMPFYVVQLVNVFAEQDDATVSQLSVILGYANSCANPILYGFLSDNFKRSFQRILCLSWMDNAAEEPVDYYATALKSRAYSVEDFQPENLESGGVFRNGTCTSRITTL
Description: as §1

[5] = biological target: T5, 168 GPCRs (Homo sapiens, UniProt P33032); settings: MC5R
T5 construct: host or cells: PathHunter cell lines
T5 sequence (P33032 whole entry): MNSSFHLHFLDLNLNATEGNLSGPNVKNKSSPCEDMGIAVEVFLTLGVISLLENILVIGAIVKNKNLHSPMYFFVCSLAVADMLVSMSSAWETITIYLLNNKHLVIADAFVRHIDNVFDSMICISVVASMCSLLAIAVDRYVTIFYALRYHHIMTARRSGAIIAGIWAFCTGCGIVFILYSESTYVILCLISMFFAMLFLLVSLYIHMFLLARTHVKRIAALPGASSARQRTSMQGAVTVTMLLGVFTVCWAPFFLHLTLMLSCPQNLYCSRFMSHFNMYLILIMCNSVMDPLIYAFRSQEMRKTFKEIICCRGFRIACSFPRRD
Description: as §1

[6] = biological target: T6, 168 GPCRs (Homo sapiens, UniProt P34981); settings: TRHR
T6 construct: host or cells: PathHunter cell lines
T6 sequence (P34981 1-398): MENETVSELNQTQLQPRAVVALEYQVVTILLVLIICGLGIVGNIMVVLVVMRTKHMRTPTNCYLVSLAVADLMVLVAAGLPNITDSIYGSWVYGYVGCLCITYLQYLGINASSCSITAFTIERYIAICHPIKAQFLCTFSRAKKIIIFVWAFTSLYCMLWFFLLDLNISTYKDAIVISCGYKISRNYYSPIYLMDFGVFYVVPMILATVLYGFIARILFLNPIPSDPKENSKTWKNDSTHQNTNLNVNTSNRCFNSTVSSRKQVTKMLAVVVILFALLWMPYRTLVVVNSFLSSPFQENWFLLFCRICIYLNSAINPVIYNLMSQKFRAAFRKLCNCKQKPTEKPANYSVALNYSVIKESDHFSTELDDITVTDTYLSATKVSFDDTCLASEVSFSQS
Description: as §1

[7] = biological target: T7, 168 GPCRs (Homo sapiens, UniProt P43088); settings: PTGFR
T7 construct: host or cells: PathHunter cell lines
T7 sequence (P43088 whole entry): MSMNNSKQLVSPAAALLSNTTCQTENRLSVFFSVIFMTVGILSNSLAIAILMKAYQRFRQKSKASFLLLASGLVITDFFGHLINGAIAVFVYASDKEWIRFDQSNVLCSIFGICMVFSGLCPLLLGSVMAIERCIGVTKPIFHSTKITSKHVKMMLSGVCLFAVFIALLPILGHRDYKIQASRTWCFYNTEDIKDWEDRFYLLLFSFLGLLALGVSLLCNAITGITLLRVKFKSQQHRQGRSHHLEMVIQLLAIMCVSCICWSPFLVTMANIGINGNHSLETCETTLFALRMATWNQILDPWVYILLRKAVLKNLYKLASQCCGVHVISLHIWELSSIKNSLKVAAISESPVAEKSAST
Description: as §1

[8] = biological target: T8, 168 GPCRs (Homo sapiens, UniProt P47898); settings: HTR5A
T8 construct: host or cells: PathHunter cell lines
T8 sequence (P47898 whole entry): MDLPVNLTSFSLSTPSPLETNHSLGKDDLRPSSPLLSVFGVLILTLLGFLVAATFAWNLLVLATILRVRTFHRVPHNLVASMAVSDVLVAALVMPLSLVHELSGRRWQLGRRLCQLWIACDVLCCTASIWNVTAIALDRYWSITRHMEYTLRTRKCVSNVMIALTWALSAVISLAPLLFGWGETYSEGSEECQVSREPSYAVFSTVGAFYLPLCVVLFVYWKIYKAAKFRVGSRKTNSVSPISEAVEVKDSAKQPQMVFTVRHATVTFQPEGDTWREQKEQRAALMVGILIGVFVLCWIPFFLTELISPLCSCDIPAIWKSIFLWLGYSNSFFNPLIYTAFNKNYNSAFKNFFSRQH
Description: as §1

[9] = biological target: T9, 168 GPCRs (Homo sapiens, UniProt P48146)
T9 construct: host or cells: PathHunter cell lines
T9 sequence (P48146 whole entry): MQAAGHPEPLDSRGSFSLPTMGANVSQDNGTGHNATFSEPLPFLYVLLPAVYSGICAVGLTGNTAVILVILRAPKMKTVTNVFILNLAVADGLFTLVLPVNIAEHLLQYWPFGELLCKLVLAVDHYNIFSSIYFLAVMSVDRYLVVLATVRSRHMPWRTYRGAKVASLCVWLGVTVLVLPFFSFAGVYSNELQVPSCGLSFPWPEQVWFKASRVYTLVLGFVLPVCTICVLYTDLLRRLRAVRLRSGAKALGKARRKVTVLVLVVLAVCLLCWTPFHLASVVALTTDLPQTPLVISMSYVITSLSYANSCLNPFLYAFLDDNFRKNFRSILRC
Description: as §1

[10] = biological target: T10, 168 GPCRs (Homo sapiens, UniProt P51681)
T10 construct: host or cells: PathHunter cell lines
T10 sequence (P51681 whole entry): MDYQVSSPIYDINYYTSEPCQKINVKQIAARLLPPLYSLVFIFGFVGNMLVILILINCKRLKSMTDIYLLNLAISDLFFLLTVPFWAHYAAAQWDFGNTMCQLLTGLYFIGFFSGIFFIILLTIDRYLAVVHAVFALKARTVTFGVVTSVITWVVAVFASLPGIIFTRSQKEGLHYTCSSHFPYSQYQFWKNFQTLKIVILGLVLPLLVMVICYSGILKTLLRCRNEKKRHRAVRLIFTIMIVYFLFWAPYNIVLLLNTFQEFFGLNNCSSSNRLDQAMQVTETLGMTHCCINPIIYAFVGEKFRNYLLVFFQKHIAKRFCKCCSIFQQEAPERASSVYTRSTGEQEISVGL
Description: as §1

[11] = biological target: T11, 168 GPCRs (Homo sapiens, UniProt P61073)
T11 construct: host or cells: PathHunter cell lines
T11 sequence (P61073 whole entry): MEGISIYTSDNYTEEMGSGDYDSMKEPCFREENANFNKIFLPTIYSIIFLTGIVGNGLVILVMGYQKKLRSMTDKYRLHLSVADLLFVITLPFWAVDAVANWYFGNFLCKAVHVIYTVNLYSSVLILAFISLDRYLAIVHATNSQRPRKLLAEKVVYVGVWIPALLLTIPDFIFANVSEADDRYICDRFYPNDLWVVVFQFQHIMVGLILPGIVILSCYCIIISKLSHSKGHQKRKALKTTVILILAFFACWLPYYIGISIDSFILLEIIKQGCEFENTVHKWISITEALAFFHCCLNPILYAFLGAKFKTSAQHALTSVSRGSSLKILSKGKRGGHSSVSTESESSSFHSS
Description: as §1

Compound: CNC(C)C(=O)c1ccc2c(c1)OCO2 (stereo not drawn) [methylone]
- % Agonist Activity ([1]; 1 uM): 0.8%
- % Antagonist Activity ([1]; 1 uM): -5.2%
- % Agonist Activity ([1]; 10 uM): -0.1%
- % Antagonist Activity ([1]; 10 uM): -6.4%
- % Agonist Activity ([2]; 1 uM): 0.4%
- % Antagonist Activity ([2]; 1 uM): 13.8%
- % Agonist Activity ([2]; 10 uM): 0.4%
- % Antagonist Activity ([2]; 10 uM): 11.2%
- % Agonist Activity ([3]; AVPR2, 1 uM): -0.9%
- % Antagonist Activity ([3]; AVPR2, 1 uM): -2.7%
- % Agonist Activity ([3]; AVPR2, 10 uM): 1%
- % Antagonist Activity ([3]; AVPR2, 10 uM): -14.8%
- % Agonist Activity ([4]; Conc 1 uM): -5.3%
- % Antagonist Activity ([4]; Conc 1 uM): 32.4%
- % Agonist Activity ([4]; Conc 10 uM): -7.4%
- % Antagonist Activity ([4]; Conc 10 uM): 20.9%
- % Agonist Activity ([5]; 1 uM): -7.9%
- % Antagonist Activity ([5]; 1 uM): 1.7%
- % Agonist Activity ([5]; 10 uM): -8.9%
- % Antagonist Activity ([5]; 10 uM): -6.3%
- % Agonist Activity ([6]; Conc 1 uM): -2%
- % Antagonist Activity ([6]; Conc 1 uM): -7.2%
- % Agonist Activity ([6]; Conc 10 uM): -2.2%
- % Antagonist Activity ([6]; Conc 10 uM): 2.8%
- % Agonist Activity ([7]; Conc 1 uM): 0.3%
- % Antagonist Activity ([7]; Conc 1 uM): 0.9%
- % Agonist Activity ([7]; Conc 10 uM): -0.2%
- % Antagonist Activity ([7]; Conc 10 uM): 0%
- % Antagonist Activity ([8]; 1 uM): 9.8%
- % Antagonist Activity ([8]; 10 uM): 1.6%
- % Agonist Activity ([9]; NPBWR2, 1 uM): -0.3%
- % Antagonist Activity ([9]; NPBWR2, 1 uM): -14.1%
- % Agonist Activity ([9]; NPBWR2, Conc 10 uM): 1.3%
- % Antagonist Activity ([9]; NPBWR2, Conc 10 uM): -14%
- % Agonist Activity ([10]; CCR5, 1 uM): -0.1%
- % Antagonist Activity ([10]; CCR5, 1 uM): 1.7%
- % Agonist Activity ([10]; CCR5, 10 uM): 0.3%
- % Antagonist Activity ([10]; CCR5, 10 uM): -0.5%
- % Agonist Activity ([11]; CXCR4, 1 uM): -4%
- % Antagonist Activity ([11]; CXCR4, 1 uM): 10.7%
- % Agonist Activity ([11]; CXCR4, 10 uM): 7%
- % Antagonist Activity ([11]; CXCR4, 10 uM): -4.2%

Compound: CNC(C)Cc1ccc2c(c1)OCO2 (stereo not drawn) [MDMA, 3,4-Methylenedioxy methamphetamine, reference compound]
- % Agonist Activity ([1]; 1 uM): 1.1%
- % Antagonist Activity ([1]; 1 uM): -5.1%
- % Agonist Activity ([1]; 10 uM): 2.4%
- % Antagonist Activity ([1]; 10 uM): -0.9%
- % Agonist Activity ([2]; 1 uM): 2.4%
- % Antagonist Activity ([2]; 1 uM): 1.2%
- % Agonist Activity ([2]; 10 uM): 0.9%
- % Antagonist Activity ([2]; 10 uM): -1%
- % Agonist Activity ([3]; AVPR2, 1 uM): -2.9%
- % Antagonist Activity ([3]; AVPR2, 1 uM): -7.8%
- % Agonist Activity ([3]; AVPR2, 10 uM): -2.2%
- % Antagonist Activity ([3]; AVPR2, 10 uM): -0.4%
- % Agonist Activity ([4]; Conc 1 uM): -9%
- % Antagonist Activity ([4]; Conc 1 uM): 5.6%
- % Agonist Activity ([4]; Conc 10 uM): -12.3%
- % Antagonist Activity ([4]; Conc 10 uM): 7.5%
- % Agonist Activity ([5]; 1 uM): 2.5%
- % Antagonist Activity ([5]; 1 uM): -0.9%
- % Agonist Activity ([5]; 10 uM): 1%
- % Antagonist Activity ([5]; 10 uM): 7.1%
- % Agonist Activity ([6]; Conc 1 uM): -0.4%
- % Antagonist Activity ([6]; Conc 1 uM): 16.2%
- % Agonist Activity ([6]; Conc 10 uM): -0.1%
- % Antagonist Activity ([6]; Conc 10 uM): 9.9%
- % Agonist Activity ([7]; Conc 1 uM): -1.5%
- % Antagonist Activity ([7]; Conc 1 uM): -1.5%
- % Agonist Activity ([7]; Conc 10 uM): -0.4%
- % Antagonist Activity ([7]; Conc 10 uM): 7.8%
- % Antagonist Activity ([8]; 1 uM): -16.4%
- % Antagonist Activity ([8]; 10 uM): -6.4%
- % Agonist Activity ([9]; NPBWR2, 1 uM): -2.6%
- % Antagonist Activity ([9]; NPBWR2, 1 uM): -2.1%
- % Agonist Activity ([9]; NPBWR2, Conc 10 uM): -2.3%
- % Antagonist Activity ([9]; NPBWR2, Conc 10 uM): 2.4%
- % Agonist Activity ([10]; CCR5, 1 uM): 0.2%
- % Antagonist Activity ([10]; CCR5, 1 uM): 4.5%
- % Agonist Activity ([10]; CCR5, 10 uM): 0.1%
- % Antagonist Activity ([10]; CCR5, 10 uM): 9.8%
- % Agonist Activity ([11]; CXCR4, 1 uM): 3.1%
- % Antagonist Activity ([11]; CXCR4, 1 uM): 19.6%
- % Agonist Activity ([11]; CXCR4, 10 uM): 2.5%
- % Antagonist Activity ([11]; CXCR4, 10 uM): 14.6%
